Results on 26 compounds are retold here after patent publication US20200138827A1, “SMALL MOLECULE MODULATORS OF HUMAN STING” (Curadev Pharma Limited, priority 2017, published 2020).

A value given as a limit tells only on which side of the number the result lay.

The target in this assay is T1, WT/R232 STING protein (Homo sapiens, UniProt Q86WV6, H232R).
T1 construct: host or cells: HEK293T
As to the kind of experiment: Luciferase reporter assay in HEK293T-hSTING-Luciferase cells, WT/R232. The class given is cell-based. The settings on record: 20 hr stimulation, read-out: R232 Activity (EC50 range). From the text: • a) Stable STING expressing cells—Stable HEK293T STING-expressing cell lines were generated using plasmids purchased from Invivogen, Calif., USA, that contain STING cDNA cloned into the pUNO-1 vector under hEF1-HTLV promoter and containing the Blasticidin selection cassette. The plasmids hSTING(R232), hSTING(H232), hSTING(HAQ) were directly procured from Invivogen while hSTING (AQ) and hSTING (Q) were derived from hSTING(HAQ) and hSTING (R232) plasmids respectively by using a PCR based site directed mutagenesis method. These vectors were individually transfected into HEK293T cells using Lipofectamine (Invitrogen) and transfected cells were selected under Blasticidin selection. These transfected cells were further subjected to clonal selection using the limiting dilution method to obtain clonally pure populations of HEK cells transfected with each of the above mentioned human STING variants. Only those clones were selected in which ligand independent activation of STING was minimal. • b) Stable Luciferase reporter gene expressing cells—Stable HEK293T Luciferase reporter gene expressing cell lines were generated using pCDNA4 plasmids under an IRF-inducible promoter. This promoter is comprised of five tandem interferon-stimulated response elements (ISRE) fused to an ISG54 minimal promoter. This vector was transfected into HEK293T cells using Lipofectamine (Invitrogen) and transfected cells were selected under Zeocin selection. These transfected cells were further subjected to clonal selection using the limiting dilution method to obtain clonally pure populations of HEK cells transfected the Luciferase reporter construct. Only those clones were selected in which ligand independent induction of luciferase was minimal.
5×10^5 clonally selected HEK293T-hSTING-Luciferase cells were seeded in 384-well plates in growth medium and stimulated with novel compounds. After 20 hr of stimulation supernatant were removed and secretary reporter gene activity were measured using the Quanti-Luc detection system (Invivogen) on a Spectramax i3X luminometer.
All compounds were first tested in a primary screen using WT/R232 STING protein to obtain a ‘fold-induction’ over baseline levels of protein activity.
For orientation: In a reporter assay the amount or activity of a reporter protein is the signal.

T1 sequence (Q86WV6 whole entry H232R): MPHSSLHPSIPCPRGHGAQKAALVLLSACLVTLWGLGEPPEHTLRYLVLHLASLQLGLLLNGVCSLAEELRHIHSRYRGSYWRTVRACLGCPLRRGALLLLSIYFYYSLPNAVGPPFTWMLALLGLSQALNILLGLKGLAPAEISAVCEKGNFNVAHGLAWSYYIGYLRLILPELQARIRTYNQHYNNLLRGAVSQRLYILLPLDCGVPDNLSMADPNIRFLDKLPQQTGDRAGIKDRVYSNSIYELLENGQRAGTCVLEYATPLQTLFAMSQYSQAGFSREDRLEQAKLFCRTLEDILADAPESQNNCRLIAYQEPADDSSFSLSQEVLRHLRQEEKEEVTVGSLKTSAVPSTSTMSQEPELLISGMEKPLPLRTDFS

The term EC50 denotes the concentration needed to bring the measured effect to its halfway point. Consider `CC(NC(=O)c1ccc2c(c1)N(Cc1ccccc1)C(=O)CS2)c1ccco1` (centres unmarked) [Example 68, 4-benzyl-N-(1-(furan-2-yl)ethyl)-3-oxo-3,4-dihydro-2H-benzo[b-1,4]thiazine-6-carboxamide], for which the EC50 is more than 10 µM.
Under `O=C(NCc1coc2ccccc12)c1ccc2c(c1)N(Cc1ccccc1)C(=O)CS2` [Example 70, N-(benzofuran-3-ylmethyl)-4-benzyl-3-oxo-3,4-dihydro-2H-benzo[b-1,4]thiazine-6-carboxamide] stands more than 10 µM.
Turning to `N#Cc1ccc(CNC(=O)c2ccc3c(c2)N(Cc2ccccc2)C(=O)CS3)cc1` [Example 71, 4-benzyl-N-(4-cyanobenzyl)-3-oxo-3,4-dihydro-2H-benzo[b-1,4]thiazine-6-carboxamide], the EC50 was in the range of 1 to 10 µM.
The figure for `O=C(NCc1ccc(C(F)(F)F)cc1)c1ccc2c(c1)N(Cc1ccccc1)C(=O)CS2` [Example 72, 4-benzyl-3-oxo-N-(4-(trifluoromethyl)benzyl)-3,4-dihydro-2H-benzo[b-1,4]thiazine-6-carboxamide] is more than 10 µM; for `O=C(NCc1ccc(Cl)cc1)c1ccc2c(c1)N(Cc1ccccc1)C(=O)CS2` [Example 73, 4-benzyl-N-(4-chlorobenzyl)-3-oxo-3,4-dihydro-2H-benzo[b-1,4]thiazine-6-carboxamide] it is 1 to 10 µM.
The figure for `O=C(NCc1ccc2ccccc2c1)c1ccc2c(c1)N(Cc1ccccc1)C(=O)CS2` [Example 74, 4-benzyl-N-(naphthalen-2-ylmethyl)-3-oxo-3,4-dihydro-2H-benzo[b-1,4]thiazine-6-carboxamide] is 1 to 10 µM; for `O=C(NC1(c2ccccc2)CCCC1)c1ccc2c(c1)N(Cc1ccccc1)C(=O)CS2` [Example 75, 4-benzyl-3-oxo-N-(1-phenylcyclopentyl)-3,4-dihydro-2H-benzo[b-1,4]thiazine-6-carboxamide] it is more than 10 µM; for `Cc1cccc(CNC(=O)c2ccc3c(c2)N(Cc2ccccc2)C(=O)CS3)c1` [Example 76, 4-benzyl-N-(3-methylbenzyl)-3-oxo-3,4-dihydro-2H-benzo[b-1,4]thiazine-6-carboxamide] it is more than 10 µM.
For the compound `Cc1nc(CNC(=O)c2ccc3c(c2)N(Cc2ccccc2)C(=O)CS3)cs1` [Example 77, 4-benzyl-N-((2-methylthiazol-4-yl)methyl)-3-oxo-3,4-dihydro-2H-benzo[b-1,4]thiazine-6-carboxamide], the EC50 is more than 10 µM.
Under `CC(C)(NC(=O)c1ccc2c(c1)N(Cc1ccccc1)C(=O)CS2)c1ccccc1F` [Example 78, 4-benzyl-N-(2-(2-fluorophenyl)propan-2-yl)-3-oxo-3,4-dihydro-2H-benzo[b-1,4]thiazine-6-carboxamide] stands more than 10 µM.
The figure for `O=C(NC(Cc1ccccc1)c1ccccc1)c1ccc2c(c1)N(Cc1ccccc1)C(=O)CS2` (centres unmarked) [Example 79, 4-benzyl-N-(1,2-diphenylethyl)-3-oxo-3,4-dihydro-2H-benzo[b-1,4]thiazine-6-carboxamide] is more than 10 µM; for `O=C(NCCC1CCCCC1)c1ccc2c(c1)N(Cc1ccccc1)C(=O)CS2` [Example 81, 4-benzyl-N-(2-cyclohexylethyl)-3-oxo-3,4-dihydro-2H-benzo[b-1,4]thiazine-6-carboxamide] it is more than 10 µM.
Under `Cc1noc(CN2C(=O)CSc3ccc(C(=O)NCc4ccco4)cc32)n1` [Example 84, N-(furan-2-ylmethyl)-4-((3-methyl-1,2,4-oxadiazol-5-yl)methyl)-3-oxo-3,4-dihydro-2H-benzo[b-1,4]thiazine-6-carboxamide] stands more than 10 µM.
Take `Cc1cc(CN2C(=O)CSc3ccc(C(=O)NCc4ccco4)cc32)no1` [Example 85, N-(furan-2-ylmethyl)-4-((5-methylisoxazol-3-yl)methyl)-3-oxo-3,4-dihydro-2H-benzo[b-1,4]thiazine-6-carboxamide]: the EC50 was more than 10 µM.
Under `NC(=O)c1cccc(CN2C(=O)CSc3ccc(C(=O)NCc4ccco4)cc32)c1` [Example 86, 4-(3-carbamoylbenzyl)-N-(furan-2-ylmethyl)-3-oxo-3,4-dihydro-2H-benzo[b-1,4]thiazine-6-carboxamide] stands more than 10 µM; under `O=C(NCc1ccco1)c1ccc2c(c1)N(Cc1cccc(OC(F)(F)F)c1)C(=O)CS2` [Example 88, N-(furan-2-ylmethyl)-3-oxo-4-(3-(trifluoromethoxy)benzyl)-3,4-dihydro-2H-benzo[b-1,4]thiazine-6-carboxamide], more than 10 µM.
Under `O=C(NCc1ccco1)c1ccc2c(c1)N(CCc1ccccc1Cl)C(=O)CS2` [Example 89, 4-(2-chlorophenethyl)-N-(furan-2-ylmethyl)-3-oxo-3,4-dihydro-2H-benzo[b-1,4]thiazine-6-carboxamide] stands more than 10 µM; under `O=C(NCc1ccco1)c1ccc2c(c1)N(CCc1cccc(Cl)c1)C(=O)CS2` [Example 90, 4-(3-chlorophenethyl)-N-(furan-2-ylmethyl)-3-oxo-3,4-dihydro-2H-benzo[b-1,4]thiazine-6-carboxamide], more than 10 µM; under `O=C(NCc1ccco1)c1ccc2c(c1)N(Cc1ccccc1OC(F)(F)F)C(=O)CS2` [Example 91, N-(furan-2-ylmethyl)-3-oxo-4-(2-(trifluoromethoxy)benzyl)-3,4-dihydro-2H-benzo[b-1,4]thiazine-6-carboxamide], more than 10 µM.
Under `O=C(NCc1ccco1)c1ccc2c(c1)N(CCc1cccc(C(F)(F)F)c1)C(=O)CS2` [Example 92, N-(furan-2-ylmethyl)-3-oxo-4-(3-(trifluoromethyl)phenethyl)-3,4-dihydro-2H-benzo[b-1,4]thiazine-6-carboxamide] stands more than 10 µM.
In the case of `N#Cc1ccccc1CN1C(=O)CSc2ccc(C(=O)NCc3ccco3)cc21` [Example 94, 4-(2-cyanobenzyl)-N-(furan-2-ylmethyl)-3-oxo-3,4-dihydro-2H-benzo[b-1,4]thiazine-6-carboxamide], the EC50 was more than 10 µM.
The figure for `O=C(NCc1ccco1)c1ccc2c(c1)N(Cc1ccc(Cl)s1)C(=O)CS2` [Example 95, 4-((5-chlorothiophen-2-yl)methyl)-N-(furan-2-ylmethyl)-3-oxo-3,4-dihydro-2H-benzo[b-1,4]thiazine-6-carboxamide] is more than 10 µM; for `Cc1nc(CN2C(=O)CSc3ccc(C(=O)NCc4ccco4)cc32)cs1` [Example 96, N-(furan-2-ylmethyl)-4-((2-methylthiazol-4-yl)methyl)-3-oxo-3,4-dihydro-2H-benzo[b-1,4]thiazine-6-carboxamide] it is more than 10 µM.
Under `O=C(NCc1ccco1)c1ccc2c(c1)N(Cc1cccc(C(F)(F)F)c1)C(=O)CS2` [Example 97, N-(furan-2-ylmethyl)-3-oxo-4-(3-(trifluoromethyl)benzyl)-3,4-dihydro-2H-benzo[b-1,4]thiazine-6-carboxamide] stands more than 10 µM; under `CN1CCCC(CN2C(=O)CSc3ccc(C(=O)NCc4ccco4)cc32)C1` (centres unmarked) [Example 98, N-(furan-2-ylmethyl)-4-((1-methylpiperidin-3-yl)methyl)-3-oxo-3,4-dihydro-2H-benzo[b-1,4]thiazine-6-carboxamide], more than 10 µM; under `O=C(NCc1ccco1)c1ccc2c(c1)N(Cc1cc(F)ccc1Cl)C(=O)CS2` [Example 99, 4-(2-chloro-5-fluorobenzyl)-N-(furan-2-ylmethyl)-3-oxo-3,4-dihydro-2H-benzo[b-1,4]thiazine-6-carboxamide], 1 to 10 µM.
